Where a name gives a salt, the structure may show the parent alone. Read-outs that look alike come from different tables or passages of the source.
Tests used:
[1] = molecular target: T1, HCV NS3 protease (full length NS34a) (Hepatitis C virus genotype 1b, UniProt P26663); test: HCV NS3 protease assay (FRET, full length NS34a); type: biochemical; settings: for inhibition at 0.01 µM: read-out: Activity % inhibition @ 0.01 μM; for inhibition at 0.03 µM: read-out: Activity % inhibition @ 0.03 μM, 0.03 μM compound
T1 construct: The protease activity of the full length NS34a was measured using a FRET-based assay; made in house
T1 sequence (P26663 1658-1711): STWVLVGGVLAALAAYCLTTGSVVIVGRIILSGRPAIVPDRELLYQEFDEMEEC
T1 sequence (P26663 1027-1657): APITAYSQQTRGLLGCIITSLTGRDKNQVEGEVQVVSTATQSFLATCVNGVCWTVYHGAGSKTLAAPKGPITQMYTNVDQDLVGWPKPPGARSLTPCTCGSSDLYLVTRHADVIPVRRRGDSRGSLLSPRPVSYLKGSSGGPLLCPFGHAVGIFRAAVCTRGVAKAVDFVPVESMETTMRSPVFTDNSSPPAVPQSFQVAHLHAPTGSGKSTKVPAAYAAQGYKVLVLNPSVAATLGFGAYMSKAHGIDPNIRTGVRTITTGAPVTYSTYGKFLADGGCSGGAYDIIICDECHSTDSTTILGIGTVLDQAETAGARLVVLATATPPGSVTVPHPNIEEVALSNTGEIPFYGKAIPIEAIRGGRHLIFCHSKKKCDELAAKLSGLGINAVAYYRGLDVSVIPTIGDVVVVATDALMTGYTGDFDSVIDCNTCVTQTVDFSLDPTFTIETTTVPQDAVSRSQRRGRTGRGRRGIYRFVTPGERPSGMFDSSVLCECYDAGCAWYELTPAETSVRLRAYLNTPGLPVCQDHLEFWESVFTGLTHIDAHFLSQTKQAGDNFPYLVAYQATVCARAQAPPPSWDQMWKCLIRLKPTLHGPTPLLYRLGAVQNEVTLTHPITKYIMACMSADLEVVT
Method in brief: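 FRET readout over 30 minutes at room temperature, with IC50 fitted to initial rates from replicate curves. Enzyme was full-length NS34a; substrate a peptide from the NS4AB cleavage site labelled with QXL520 and 5-FAMsp; buffer 50 mM Tris pH8 containing 20 mM DTT, 1% CHAPS, 10% glycerol and 5% DMSO.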

[2] = test system: HCV subgenomic replicon in Huh-7 cells; test: Replicon assay, EC50 luciferase readout; type: cell-based, hepatitis C virus (HCV); settings: Hepatitis C virus, Huh-7, 72 h, single value, or second value of a pair x:y
Experimental: The activities of compounds of the invention against HCV in a cellular environment were analysed using a replicon assay as described below.
Thus, Huh-7 cells persistently infected with an HCV-RNA construct (Bartenschlager, R. Hepatitis C replicons: potential role for drug development. Nature Rev. Drug Discov. 1, 911-916 (2002)) comprising: 5′ and 3′ non-translated regions (NTR); the non-structural genes NS3 to NS5b; as well as the G418 drug resistance gene, neomycin, (for selection of cells carrying HCV replicon RNA) fused to the firefly Luciferase reporter gene (pFK13889luc-ubi-neoNS3-3′ET), were used to determine the cell based antiviral activity of compounds using luciferase activity as an indirect readout of HCV RNA load. In this assay […] huh-7 cells persistently infected with the HCV subgenomic replicon construct above were platedwell in a 96 well tissue culture plate. The cells were allowed to attach overnight in DMEM medium supplemented with 10% FBS 1% NEAA, and 250 μgml gentamicin. The following day the medium was replaced with 200 μlwell of fresh medium as described above lacking gentamicin. […] Plates were then incubated at 37° C. in an atmosphere of 5% CO2 and air for 72 h. […] The plate was then read at 535 nm (excitation) and 590 nm (emission) on a SpectraMax Gemini reader (Molecular Devices) to determine the number of viable cells by measuring the conversion of rezasurin (Alamar blue) to resorufin in response to mitochondrial activity. In order to determine the antiviral effect of these compounds EC50 values were determined by measuring the luciferase activity of the cells. Alamar blue solution was removed from the wells and replaced with 100 μlwell of medium along with 100 μlwell of Bright-Glo reagent and incubated at room temperature for 5 minutes before transferring 100 μlwell to a white bottom 96 well plate to read in a luminometer as described in the Bright-Glo Luciferase Assay System protocol (promega).

[3] = protease activity of full length NS34a, FRET peptide substrate, read-out: Activity IC50
[4] = Huh-7 replicon cells, 72 h, read-out: Activity EC50 (μM) (EC50 luciferase readout)
[5] = IC50 values of 10-150 μM against the protease activity of the full length NS34a, or at least 40% inhibition of protease activity at a concentration of 100 μM
[6] = read-out: Activity EC50 (μM) (EC50 luciferase readout), Huh-7 replicon cells, 72 h

## CC[C@@H](N[C@@H](C)CC(N)=O)c1ccc(Cl)c(Oc2ccc(-c3cnco3)c(C)c2)c1F [Example 317]
[1]; [3]
  IC50: 0.45 µM
[2]; [4]
  EC50: 2.7 µM

## CCC(NCCC(N)=O)c1ccc(F)c(Oc2ccccc2)c1F (stereo not shown) [Example 71]
[1]; [3]
  IC50: 0.95 µM
[2]; [4]
  EC50: > 30 µM

## CCC(NC(C)C)c1ccc(F)c(Oc2ccccc2)c1F (stereo not shown) [Example 34]
[1]; [3]
  IC50: 4 µM
[2]; [4]
  EC50: 1.2 µM

## CCC(NC(C)CC(=O)NC)c1ccc(F)c(Oc2ccccc2)c1F (stereo not shown) [Example 49]
[1]; [3]
  IC50: 3.2 µM
[2]; [4]
  EC50: > 30 µM

## CC[C@@H](N[C@@H](C)CC(=O)N1CCNCC1)c1ccc(Cl)c(Oc2ccccc2)c1F [Example 235]
[1]; [3]
  IC50: 0.43 µM
[2]; [4]
  EC50: 0.6 µM

## CCC(NC1CCC1)c1ccc(F)c(Oc2ccccc2)c1F (stereo not shown) [Example 44]
[1]; [3]
  IC50: 4.7 µM
[2]; [4]
  EC50: 9.9 µM

## CCC(N[C@H]1CC[C@H](N)CC1)c1ccc(F)c(Oc2ccccc2)c1F (stereo partly drawn) [Example 5, Trans-N-[1′-(2,4-difluoro-3-phenoxy-phenyl)-propyl]-cyclohexane-1,4-diamine]
[1]; [3]
  IC50: 2 µM
[2]; [4]
  EC50: 0.13 µM

## CC[C@@H](N[C@@H](C)CC(=O)NCCNC)c1ccc(Cl)c(Oc2ccccc2)c1F [Example 241]
[1]; 0.01 μM compound
  inhibition at 0.01 µM: 47%
[2]; [4]
  EC50: 0.98 µM

## CC[C@@H](N[C@@H](C)CC(=O)NCCCN)c1ccc(Cl)c(Oc2ccccc2)c1F [Example 240]
[1]; 0.01 μM compound
  inhibition at 0.01 µM: 42%
[2]; [4]
  EC50: 8.9 µM

## CCC(NCC(C)O)c1ccc(F)c(Oc2ccccc2)c1F (mixture of isomers) [Example 53, 1-[1-(2,4-Difluoro-3-phenoxy-phenyl)-propylamino]-propan-2-ol.hydrochloride]
[1]; [3]
  IC50: 5 µM
[2]; [4]
  EC50: 26 µM

## CC[C@@H](N[C@@H](C)CC(N)=O)c1ccc(Cl)c(Oc2ccc(C#N)nc2)c1F [Example 246]
[1]; [3]
  IC50: 0.17 µM
[2]; [4]
  EC50: > 10 µM

## OCCN[C@@H](CC1CCNCC1)c1ccc(F)c(Oc2ccccc2)c1F [Example 101]
[1]; [3]
  IC50: 1.3 µM
[2]; [4]
  EC50: 0.23 µM

## CC[C@@H](N[C@@H](C)CC(=O)N[C@H]1C[C@H](N)C1)c1ccc(Cl)c(Oc2ccccc2)c1F [Example 319]
[1]; [3]
  IC50: 3.5 µM
[2]; [4]
  EC50: 8.6 µM

## C[C@H](CO)N[C@H](CC1CCNCC1)c1ccc(F)c(Oc2ccccc2)c1F [Example 90]
[1]; [5]
  IC50: 10 to 150 µM
[2]; [4]
  EC50: 0.36 µM

## CC[C@@H](N[C@H](C)CC(N)=O)c1ccc(Cl)c(Oc2ccc(N)c(Cl)c2)c1F [Example 267]
[1]; [3]
  IC50: 0.48 µM
[2]; [4]
  EC50: > 10 µM

## CCN(Cc1ccc(Cl)c(Oc2ccccc2)c1F)[C@H]1CC[C@H](N)CC1 [Example 273B, trans-N-(4-Chloro-2-fluoro-3-phenoxy-benzyl)-N-ethyl-cyclohexane-1,4-diamine.dihydrochloride]
[1]; [3]
  IC50: 2.3 µM
[2]; [4]
  EC50: 0.76 µM

## CC[C@H](N[C@H](C)CC(N)=O)c1ccc(Cl)c(Oc2ccccc2)c1F [Example 80, (R)-3-[(S)-1-(4-Chloro-2-fluoro-3-phenoxy-phenyl)-propylamino]-butyramide.hydrochloride]
[1]; [5]
  IC50: 10 to 150 µM
[2]; [4]
  EC50: > 10 µM

## N[C@H]1CC[C@H](NCc2ccc(Cl)c(Oc3ccccc3)c2F)CC1 [Example 271, trans-N-(4-Chloro-2-fluoro-3-phenoxy-benzyl)-cyclohexane-1,4-diamine. dihydrochloride]
[1]; [3]
  IC50: 0.26 µM
[2]; [4]
  EC50: 0.34 µM

## CC[C@@H](N[C@@H](C)CC(=O)NN)c1ccc(Cl)c(Oc2ccccc2)c1F [Example 154]
[1]; [3]
  IC50: 0.18 µM
[2]; [4]
  EC50: 17 µM

## CC[C@@H](N[C@H](C)CC(=O)NCCN)c1ccc(Cl)c(Oc2ccccc2)c1F [Example 223, (R)—N-(2-Amino-ethyl)-3-[(R)-1-(4-chloro-2-fluoro-3-phenoxy-phenyl)-propylamino]-butyramide.dihydrochloride]
[1]; Activity IC50 (μM), protease activity of full length NS34a, FRET peptide substrate
  IC50: 0.081 µM
[2]; [4]
  EC50: > 30 µM

## CC[C@@H](N[C@@H](C)CC(=O)NCCN)c1ccc(Cl)c(Oc2ccccc2)c1F [Example 224]
[1]
  inhibition at 0.01 µM: 65.5%
[2]; [4]
  EC50: 0.0088 µM

## CC[C@@H](N[C@@H](C)c1cc[nH]c1)c1ccc(Cl)c(Oc2ccccc2)c1F [Example 164]
[1]; [3]
  IC50: 0.27 µM
[2]; [4]
  EC50: 2.3 µM

## CC[C@@H](N[C@H](C)CC(N)=O)c1ccc(Cl)c(Oc2ccc(CC#N)cc2)c1F [Example 212]
[1]; [3]
  IC50: 0.82 µM
[2]; [6]
  EC50: > 10 µM

## CC[C@@H](N[C@@H](C)c1cn[nH]c1)c1ccc(Cl)c(Oc2ccccc2)c1F [Example 145A, [(R)-1-(4-Chloro-2-fluoro-3-phenoxy-phenyl)-propyl]-[(S)-1-(1H-pyrazol-4-yl)-ethyl]-amine. dihydrochloride]
[1]; [3]
  IC50: 7.4 µM
[2]; [4]
  EC50: 9.5 µM

## CC[C@@H](N[C@H](C)CC(=O)NCCN)c1ccc(Cl)c(Oc2ccc(N)c(C)c2)c1F [Example 239]
[1]
  inhibition at 0.03 µM: 41%
[2]; [4]
  EC50: 0.97 µM

## CC[C@@H](N[C@@H](C)CC(N)=O)c1ccc(Cl)c(Oc2ccc(C#N)cc2)c1F [Example 186]
[1]; [3]
  IC50: 0.039 µM
[2]; [4]
  EC50: 0.13 µM

## C[C@@H](CC(=O)NCCN)NCc1ccc(Cl)c(Oc2ccccc2)c1F [Example 329]
[1]
  inhibition at 0.03 µM: 57%
[2]; [4]
  EC50: 4 µM

## CCNCCNC(=O)C[C@H](C)N[C@H](CC)c1ccc(Cl)c(Oc2ccccc2)c1F [Example 316]
[1]; [3]
  IC50: 0.4 µM
[2]; [4]
  EC50: > 10 µM

## N[C@H]1CC[C@H](NCc2ccc(F)c(Oc3ccccc3)c2F)CC1 [Example 282]
[1]; [3]
  IC50: 0.73 µM
[2]; [4]
  EC50: 0.37 µM

## CC[C@@H](N[C@@H](C)CC(N)=O)c1ccc(Cl)c(Oc2ccc(CC#N)cc2)c1F [Example 211]
[1]; [3]
  IC50: 0.072 µM
[2]; [6]
  EC50: 0.066 µM

## CCC(NCC1CC1)c1ccc(F)c(Oc2ccccc2)c1F (stereo not shown) [Example 22]
[1]; [3]
  IC50: 3.2 µM
[2]; [4]
  EC50: 6.6 µM

## CC[C@@H](CC(N)=O)N[C@H](CC)c1ccc(Cl)c(Oc2ccccc2)c1F [Example 134B, (S)-3-[(R)-1-(4-Chloro-2-fluoro-3-phenoxy-phenyl)-propylamino]-pentanoic acid amide.hydrochloride]
[1]; [3]
  IC50: 0.084 µM
[2]; [4]
  EC50: 0.4 µM

## CC[C@@H](N[C@@H](C)CC(N)=O)c1ccc(Cl)c(Oc2ccc(N)nc2)c1F [Example 124]
[1]; [3]
  IC50: 0.11 µM
[2]; [4]
  EC50: 0.28 µM

## CC[C@@H](N)c1ccc(Cl)c(Oc2ccc(C#N)c(C)c2)c1F [Example 221]
[1]; [3]
  IC50: 0.43 µM
[2]; [4]
  EC50: > 30 µM

## CCC[C@@H](N[C@@H](C)CC(N)=O)c1ccc(Cl)c(Oc2ccccc2)c1F [Example 125]
[1]; [3]
  IC50: 0.23 µM
[2]; [4]
  EC50: 0.38 µM

## CC[C@@H](N[C@@H](C)CC(N)=O)c1ccc(Cl)c(Oc2cccc(CO)c2)c1F [Example 116]
[1]; [3]
  IC50: 0.13 µM
[2]; [4]
  EC50: 0.19 µM

## CC[C@H](N[C@H](C)CC(N)=O)c1ccc(Cl)c(Oc2ccccc2)c1F (single isomer, unassigned) [Example 83]
[1]; [3]
  IC50: 6.7 µM
[2]; [4]
  EC50: 17 µM

## Cc1ccc(CN[C@H]2CC[C@H](N)CC2)c(F)c1Oc1ccccc1 [Example 272, trans-N-(2-Fluoro-4-methyl-3-phenoxy-benzyl)-cyclohexane-1,4-diamine.dihydrochloride]
[1]; [3]
  IC50: 0.88 µM
[2]; [4]
  EC50: 5.3 µM
